We go through 57 molecules from patent US8889677B2, “Substituted triazoles useful as mGlu5 receptor modulators” (Boehringer Ingellheim International GmbH, priority 2012, dated 2014).

For the assay, the target named is T1, human recombinant mGluR5 (Homo sapiens, UniProt P41594).
T1 construct: expressed in transfected cells; host or cells: HEK 293 cell line cultured with tetracycline, hygromycin and geneticin; tetracycline removed 3-7 days before the assay
T1 sequence (P41594 21-1212): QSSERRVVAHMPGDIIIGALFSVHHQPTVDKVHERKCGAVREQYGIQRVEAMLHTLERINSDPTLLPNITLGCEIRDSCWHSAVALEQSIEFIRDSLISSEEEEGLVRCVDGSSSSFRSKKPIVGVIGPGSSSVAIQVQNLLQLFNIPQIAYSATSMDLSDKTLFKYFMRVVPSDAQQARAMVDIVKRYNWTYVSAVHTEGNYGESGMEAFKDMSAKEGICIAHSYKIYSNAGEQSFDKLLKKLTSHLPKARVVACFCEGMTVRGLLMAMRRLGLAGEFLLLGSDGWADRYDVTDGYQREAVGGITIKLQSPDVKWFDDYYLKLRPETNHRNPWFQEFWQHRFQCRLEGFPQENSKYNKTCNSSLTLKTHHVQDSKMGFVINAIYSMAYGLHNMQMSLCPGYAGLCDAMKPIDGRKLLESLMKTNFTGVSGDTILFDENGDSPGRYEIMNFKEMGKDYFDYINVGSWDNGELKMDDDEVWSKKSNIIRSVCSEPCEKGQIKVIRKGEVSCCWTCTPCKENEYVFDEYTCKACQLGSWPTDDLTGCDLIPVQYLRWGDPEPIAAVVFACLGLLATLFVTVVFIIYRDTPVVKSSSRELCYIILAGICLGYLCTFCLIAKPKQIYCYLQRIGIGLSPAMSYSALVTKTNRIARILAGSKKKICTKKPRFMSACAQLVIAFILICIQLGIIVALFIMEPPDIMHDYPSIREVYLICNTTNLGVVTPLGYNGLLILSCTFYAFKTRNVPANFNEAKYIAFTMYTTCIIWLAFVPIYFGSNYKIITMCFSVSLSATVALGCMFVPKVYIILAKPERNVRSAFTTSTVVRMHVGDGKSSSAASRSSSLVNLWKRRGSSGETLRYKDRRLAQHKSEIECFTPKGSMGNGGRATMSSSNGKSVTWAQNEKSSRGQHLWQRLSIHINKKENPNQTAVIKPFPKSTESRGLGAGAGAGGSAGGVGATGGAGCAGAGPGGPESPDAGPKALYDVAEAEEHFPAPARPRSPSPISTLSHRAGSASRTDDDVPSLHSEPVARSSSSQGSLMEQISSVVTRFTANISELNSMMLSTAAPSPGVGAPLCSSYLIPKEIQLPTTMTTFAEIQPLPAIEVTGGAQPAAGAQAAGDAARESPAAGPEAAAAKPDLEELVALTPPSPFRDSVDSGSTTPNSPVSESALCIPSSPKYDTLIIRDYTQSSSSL
As to the kind of experiment: positive modulation of mGluR5, calcium based FLIPR assay in HEK 293 cells. To be noted: HEK 293 cell line expressing human recombinant mGluR5; EC50 of the modulation of the glutamate response (glutamate approx. 5% basal stimulation); peak height of Ca release fluorescence signal. In outline: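 HEK 293 cells expressing human mGluR5 (tetracycline-free medium 3-7 days before), loaded with Calcium-4 dye, in Ringer buffer pH 7.4, 1% DMSO. Compound pre-incubated 5 min, then glutamate at about 5% of maximal effect added; EC50 from peak Ca2+ fluorescence by nonlinear regression, scaled between DMSO (100%) and 10 μM CDPPB (200%) controls.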
As a reminder, the EC50 is the concentration at which the effect is half-maximal. For `O=C(Cn1nc(-c2ccc(F)cc2)nc1-c1ccc(F)cc1)N1CCN(c2cc(C(F)(F)F)ccn2)CC1` [Example 07.02.07.], the 50% effective concentration (EC50) is 0.217 µM. Regarding `O=C(Cn1nc(-c2ccc(F)cc2)nc1-c1ccc(F)cc1)N1CCN(c2cc(OCC3CCCCO3)ncn2)CC1` (stereo not drawn) [Example 07.09.10.], the EC50 is 0.052 µM. Under `COc1ccc(-c2nc(-c3ccc(OC)cc3)n(CC(=O)N3CCN(c4ncccc4C#N)CC3)n2)cc1` [Example 07.02.16.] stands 0.266 µM; under `COc1ccc(-c2nc(-c3ccc(F)cc3)n(CC(=O)N3CCN(c4cccnn4)CC3)n2)cc1` [Example 07.04.037.], 0.114 µM. Take `Cc1cc(-c2nc(C3CCCCC3C)n(CC(=O)N3CCN(c4ccccn4)CC3)n2)ccc1F` (stereo not drawn) [Example 07.04.133.]: the EC50 was found to be 1.08 µM. Under `Cc1ccc(-c2nc(-c3ccccc3)nn2CC(=O)N2CCN(c3ncccn3)CC2)cc1` [Example 07.10.22.] stands 0.087 µM; under `O=C(Cn1nc(-c2ccc(F)cc2)nc1-c1ccc(F)cc1)N1CCN(c2cc(N3CCCC3)ncn2)CC1` [Example 07.08.13.], 0.343 µM; under `CN(C)c1ccnc(N2CCN(C(=O)Cn3nc(-c4ccc(F)cc4)nc3-c3ccc(F)cc3)CC2)n1` [Example 07.03.16.], 0.066 µM.

Turning to `COCc1ccc(-c2nc(-c3ccccc3)nn2CC(=O)N2CCN(c3ncccn3)CC2)cc1` [Example 07.10.24.], the half-maximal effective concentration (EC50) was 0.3 µM. Under `COc1cc(OC)nc(N2CCN(C(=O)Cn3nc(-c4ccc(F)cc4)nc3-c3ccc(F)cc3)CC2)n1` [Example 07.03.13.] stands 0.224 µM. Regarding `CCC(C)c1nc(-c2ccc(F)c(C)c2)nn1CC(=O)N1CCN(c2cccnn2)CC1` (stereo not drawn) [Example 07.04.104.], the EC50 came to 1.85 µM. In the case of `CNc1cc(N2CCN(C(=O)Cn3nc(-c4ccc(F)cc4)nc3-c3ccc(F)cc3)CC2)ncn1` [Example 07.08.24.] it was 0.191 µM; in that of `O=C(Cn1nc(-c2ccc(F)cc2)nc1-c1ccc(F)cc1)N1CCN(c2cc(OCCn3ccnc3)ncn2)CC1` [Example 07.09.17.], 0.106 µM. In the case of `COc1ccc(-c2nc(-c3ccc(F)cc3)nn2CC(=O)N2CCN(c3ncccn3)CC2)cc1` [Example 07.04.040.] it was 0.033 µM; in that of `CN(C)c1ccnc(N2CCN(C(=O)Cn3nc(-c4ccc(F)cc4)nc3-c3ccc(F)cc3)CC2)c1` [Example 07.03.17.], 0.601 µM; in that of `O=C(Cn1nc(-c2ccc(F)cc2)nc1-c1ccc(F)cc1)N1CCN(c2ncc(Br)cn2)CC1` [Example 07.03.04.], 0.05 µM. Take `Cc1cc(-c2nc(C3CCCC(C)C3)n(CC(=O)N3CCN(c4ccccn4)CC3)n2)ccc1F` (stereo not drawn) [Example 07.04.149.]: the EC50 turned out to be 0.869 µM. In the case of `Cc1ccnc(N2CCN(C(=O)Cn3nc(-c4ccc(F)c(C)c4)nc3C3CCC(C)CC3)CC2)c1` (stereo not drawn) [Example 07.04.130.] it was 0.848 µM; in that of `Cc1cc(-c2nc(C)n(CC(=O)N3CCN(c4ccccn4)CC3)n2)ccc1F` [Example 07.04.095.], 1.66 µM; in that of `N#CCc1ccc(-c2nc(-c3ccccc3)nn2CC(=O)N2CCN(c3ncccn3)CC2)cc1` [Example 07.10.21.], 1.5 µM. In the case of `Cc1ccc(-c2nc(-c3ccccc3)n(CC(=O)N3CCN(c4ncccn4)CC3)n2)cc1` [Example 07.10.12.] it was 0.023 µM; in that of `O=C(Cn1nc(-c2ccc(F)cc2)nc1C#CC1CCCCC1)N1CCN(c2ccccn2)CC1` [Example 07.11.02.], 0.416 µM; in that of `COc1ccc(-c2nc(C3CCCCC3)n(CC(=O)N3CCN(c4ccccn4)CC3)n2)c(F)c1` [Example 07.04.022.], 1.04 µM. In the case of `CCCc1nc(-c2ccc(F)c(C)c2)nn1CC(=O)N1CCN(c2ncncn2)CC1` [Example 07.04.084.] it was 1.6 µM; in that of `O=C(Cn1nc(-c2ccc(F)cc2)nc1-c1ccc(F)cc1)N1CCN(c2cc(OCCO)ncn2)CC1` [Example 07.07.01., 2-(3,5-bis-(4-fluoro-phenyl)-(1,2,4)triazol-1-yl)-1-(4-(6-(2-hydroxy-ethoxy)-pyrimidin-4-yl)-piperazin-1-yl)-ethanone], 0.165 µM. As to `O=C1CCCN1CCOc1cc(N2CCN(C(=O)Cn3nc(-c4ccc(F)cc4)nc3-c3ccc(F)cc3)CC2)ncn1` [Example 07.09.12.], the half-maximal effective concentration (EC50) amounted to 0.17 µM. `COCCN(C)c1cc(N2CCN(C(=O)Cn3nc(-c4ccc(F)cc4)nc3-c3ccc(F)cc3)CC2)ncn1` [Example 07.08.03.]: the concentration giving a half-maximal response (EC50) was 0.238 µM. Under `O=C(Cn1nc(-c2ccc(F)cc2)nc1-c1ccc(F)cc1)N1CCN(c2cc(OCCCN3CCOCC3)ncn2)CC1` [Example 07.09.19.] stands 0.2 µM. In the case of `COc1cc(-c2nc(-c3ccc(F)cc3)n(CC(=O)N3CCN(c4ncccn4)CC3)n2)ccc1F` [Example 07.04.156.] it was 0.018 µM; in that of `COc1ccc(-c2nc(-c3ccc(F)cc3)n(CC(=O)N3CCN(c4ccccn4)CC3)n2)cc1` [Example 07.04.035.], 0.04 µM.

Take `O=C(Cn1nc(-c2ccc(F)cc2)nc1-c1ccc(F)cc1)N1CCN(c2ccc(Cl)cn2)CC1` [Example 07.04.12.]: the EC50 came out at 0.176 µM. Consider `COc1ccnc(N2CCN(C(=O)Cn3nc(-c4ccc(F)cc4)nc3-c3ccc(F)cc3)CC2)c1` [Example 07.03.01., 2-(3,5-Bis-(4-fluoro-phenyl)-(1,2,4)triazol-1-yl)-1-(4-(4-methoxy-pyridin-2-yl)-piperazin-1-yl)-ethanone], for which the concentration giving a half-maximal response (EC50) was 0.088 µM. In the case of `O=C(Cn1nc(-c2ccc(F)cc2)nc1-c1ccc(F)cc1)N1CCN(c2cc(OCC3CCOCC3)ncn2)CC1` [Example 07.09.29.], the EC50 stood at 0.044 µM. Under `O=C(Cn1nc(-c2ccc(F)cc2)nc1C#Cc1ccccc1)N1CCN(c2ccccn2)CC1` [Example 07.11.01., 2-(3-(4-fluoro-phenyl)-5-phenylethynyl-(1,2,4)triazol-1-yl)-1-(4-pyridin-2-yl-piperazin-1-yl)-ethanone] stands 0.098 µM. In the case of `COCCN1CCN(c2cc(N3CCN(C(=O)Cn4nc(-c5ccc(F)cc5)nc4-c4ccc(F)cc4)CC3)ncn2)CC1` [Example 07.08.10.] it was 1.03 µM; in that of `COc1cccc(-c2nc(C3CCCCC3)n(CC(=O)N3CCN(c4cc(C)ccn4)CC3)n2)c1` [Example 07.04.052.], 0.898 µM. In the case of `COc1cc(N2CCN(C(=O)Cn3nc(-c4ccc(F)c(Cl)c4)nc3-c3ccccc3)CC2)ncn1` [Example 07.10.37.] it was 0.101 µM; in that of `O=C(Cn1nc(-c2ccc(F)cc2)nc1-c1ccc(F)cc1)N1CCN(c2cc(OCC3CCCO3)ncn2)CC1` (stereo not drawn) [Example 07.09.02.], 0.059 µM; in that of `COc1cc(N2CCN(C(=O)Cn3nc(-c4ccc(F)c(OC)c4)nc3-c3ccc(F)cc3)CC2)ncn1` [Example 07.04.158.], 0.027 µM. With `O=C(Cn1nc(-c2ccc(F)cc2)nc1-c1ccc(F)cc1)N1CCN(c2ncccc2C(F)(F)F)CC1` [Example 07.02.02.], the EC50 turned out to be 0.474 µM. Under `O=C(Cn1nc(-c2cccc(F)c2)nc1-c1ccccc1)N1CCN(c2ncccn2)CC1` [Example 07.10.07.] stands 0.189 µM; under `N#Cc1ccnc(N2CCN(C(=O)Cn3nc(-c4ccc(F)cc4)nc3-c3ccc(F)cc3)CC2)c1` [Example 07.02.08.], 0.036 µM; under `Cc1cc(-c2nc(-c3ccccc3)n(CC(=O)N3CCN(c4cccnn4)CC3)n2)ccc1F` [Example 07.04.059.], 0.16 µM. `Cc1ccnc(N2CCN(C(=O)Cn3nc(-c4ccc(F)c(C)c4)nc3-c3ccccc3)CC2)c1` [Example 07.04.062.]: the EC50 stood at 0.057 µM.

On to `O=C(Cn1nc(-c2ccc(F)cc2)nc1C1CCCCC1)N1CCN(c2ncccn2)CC1` [Example 07.04.031.], for which the 50% effective concentration (EC50) came to 0.661 µM. Consider `CN1CCN(CCOc2cc(N3CCN(C(=O)Cn4nc(-c5ccc(F)cc5)nc4-c4ccc(F)cc4)CC3)ncn2)CC1` [Example 07.09.28.], for which the EC50 came out at 0.523 µM.

As for `CCCc1nc(-c2ccc(F)c(C)c2)nn1CC(=O)N1CCN(c2cc(OC)ccn2)CC1` [Example 07.04.081.], the EC50 was 0.353 µM. Under `O=C(Cn1nc(-c2ccc(F)cc2)nc1-c1ccc(F)cc1)N1CCN(c2cc(OC[C@H]3CCCO3)ncn2)CC1` [Example 07.09.03.] stands 0.058 µM. In the case of `O=C(Cn1nc(-c2ccc(F)cc2)nc1-c1ccc(F)cc1)N1CCN(c2cc(NCc3ccccn3)ncn2)CC1` [Example 07.08.17.] it was 0.286 µM; in that of `CN(C)c1nccc(N2CCN(C(=O)Cn3nc(-c4ccc(F)cc4)nc3-c3ccc(F)cc3)CC2)n1` [Example 07.03.22.], 0.476 µM. Under `COc1cc(N2CCN(C(=O)Cn3nc(-c4cc(F)c(F)c(F)c4)nc3-c3ccccc3)CC2)ncn1` [Example 07.10.39.] stands 0.389 µM; under `COc1ccc(-c2nc(-c3ccc(OC)cc3)n(CC(=O)N3CCN(c4ccc(Cl)cn4)CC3)n2)cc1` [Example 07.02.12.], 0.328 µM; under `O=C(Cn1nc(-c2ccc(F)cc2)nc1-c1ccc(F)cc1)N1CCN(c2cc3ccccc3cn2)CC1` [Example 07.04.005.], 0.4 µM. As for `COc1ccc(-c2nc(-c3ccc(OC)cc3)n(CC(=O)N3CCN(c4ccc(C#N)cn4)CC3)n2)cc1` [Example 07.02.13.], the concentration for a half-maximal effect (EC50) was 1.29 µM. Under `COc1ccc(-c2nc(-c3ccccc3)n(CC(=O)N3CCN(c4ccccn4)CC3)n2)cc1OC` [Example 07.02.18.] stands 0.227 µM; under `CN(C)c1cncc(N2CCN(C(=O)Cn3nc(-c4ccc(F)cc4)nc3-c3ccc(F)cc3)CC2)n1` [Example 07.03.11.], 0.283 µM; under `Cc1cc(-c2nc(-c3ccccc3)n(CC(=O)N3CCN(c4ncccn4)CC3)n2)ccc1Br` [Example 07.01.06.], 0.013 µM.
